# Read-outs that look alike come from different tables or passages of the source.
# Legend:
# Test in all cases: MIC by micro-dilution method
# Type in all cases: cell-based
# S. pyogenes 1323 = settings: Streptococcus pyogenes
# Experimental: (§1) Antibacterial activity studies may be carried out using suitable assays as are known in the art. Susceptibility tests can be used to quantitatively measure the in vitro activity of an antimicrobial agent against a given bacterial isolate. Compounds are tested for in vitro antibacterial activity by a micro-dilution method. Minimal Inhibitory Concentration (MIC) is determined in 96 well microtiter plates utilizing the appropriate Mueller Hinton Broth medium (CAMHB) for the observed bacterial isolates. Antimicrobial agents are serially diluted (2-fold) in DMSO to produce a concentration range from about 64 μg/ml to about 0.03 μg/ml. The diluted compounds (2 μl/well) are then transferred into sterile, uninoculated CAMHB (0.2 mL) by use of a 96 fixed tip-pipeting station. The inoculum for each bacterial strain is standardized to 5×10^5 CFU/mL by optical comparison to a 0.5 McFarland turbidity standard. The plates are inoculated with 10 μI/well of adjusted bacterial inoculum. The 96 well plates are covered and incubated at 35+/−2° C. for 24 hours in ambient air environment. Following incubation, plate wells are visually examined by Optical Density measurement for the presence of growth (turbidity). The lowest concentration of an antimicrobial agent at which no visible growth occurs is defined as the MIC.
# (§2) All in vitro testing follows the guidelines described in the Approved Standards M7-A4 protocol, published by the National Committee for Clinical Laboratory Standards (NCCLS).
# (§3) The values in the table are minimum inhibition concentration (MIC) and are expressed as ug/mL. Assays for MIC are described above.
# S. aureus 27660 = settings: Staphylococcus aureus
# Experimental: as §1, §2, §3
# S. pyogenes 2912 = settings: Streptococcus pyogenes
# Experimental: as §1, §2, §3
# S. aureus 33591 = settings: Staphylococcus aureus
# Experimental: as §1, §2, §3
# S. pneumoniae 7701 = settings: Streptococcus pneumoniae
# Experimental: as §1, §2, §3
# S. pneumoniae 700906 = settings: Streptococcus pneumoniae
# Experimental: as §1, §2, §3
# S. aureus 29213 = settings: Staphylococcus aureus
# Experimental: as §1, §2, §3
# H. influenzae 33929 = settings: Haemophilus influenzae
# Experimental: as §1, §2, §3
# [1] = Table IV, species from U.S. Pat. No. 6,878,691 and US 2004/0053861, read-out: minimum inhibition concentration (MIC) S. pyogenes 1323
# [2] = Table IV, species from U.S. Pat. No. 6,878,691 and US 2004/0053861, read-out: minimum inhibition concentration (MIC) S. aureus 27660
# [3] = Table IV, species from U.S. Pat. No. 6,878,691 and US 2004/0053861, read-out: minimum inhibition concentration (MIC) S. pyogenes 2912
# [4] = Table IV, species from U.S. Pat. No. 6,878,691 and US 2004/0053861, read-out: minimum inhibition concentration (MIC) S. aureus 33591
# [5] = Table IV, species from U.S. Pat. No. 6,878,691 and US 2004/0053861, read-out: minimum inhibition concentration (MIC) S. pneumoniae 7701
# [6] = Table IV, species from U.S. Pat. No. 6,878,691 and US 2004/0053861, read-out: minimum inhibition concentration (MIC) S. pneumoniae 700906
# [7] = Table IV, species from U.S. Pat. No. 6,878,691 and US 2004/0053861, read-out: minimum inhibition concentration (MIC) S. aureus 29213
# [8] = Table IV, species from U.S. Pat. No. 6,878,691 and US 2004/0053861, read-out: minimum inhibition concentration (MIC) H. influenzae 33929
# [9] = Table V, compounds of this invention, read-out: minimum inhibition concentration S. pyogenes 1323
# [10] = Table V, compounds of this invention, read-out: minimum inhibition concentration S. aureus 27660
# [11] = Table V, compounds of this invention, read-out: minimum inhibition concentration S. pyogenes 2912
# [12] = Table V, compounds of this invention, read-out: minimum inhibition concentration S. aureus 33591
# [13] = Table V, compounds of this invention, read-out: minimum inhibition concentration S. pneumoniae 7701
# [14] = Table V, compounds of this invention, read-out: minimum inhibition concentration S. pneumoniae 700906
# [15] = Table V, compounds of this invention, read-out: minimum inhibition concentration S. aureus 29213
# [16] = Table V, compounds of this invention, read-out: minimum inhibition concentration H. influenzae 33929
SMILES,MIC (S. pyogenes 1323; [1]) [µg/mL],MIC (S. aureus 27660; [2]) [µg/mL],MIC (S. pyogenes 2912; [3]) [µg/mL],MIC (S. aureus 33591; [4]) [µg/mL],MIC (S. pneumoniae 7701; [5]) [µg/mL],MIC (S. pneumoniae 700906; [6]) [µg/mL],MIC (S. aureus 29213; [7]) [µg/mL],MIC (H. influenzae 33929; [8]) [µg/mL],MIC (S. pyogenes 1323; [9]) [µg/mL],MIC (S. aureus 27660; [10]) [µg/mL],MIC (S. pyogenes 2912; [11]) [µg/mL],MIC (S. aureus 33591; [12]) [µg/mL],MIC (S. pneumoniae 7701; [13]) [µg/mL],MIC (S. pneumoniae 700906; [14]) [µg/mL],MIC (S. aureus 29213; [15]) [µg/mL],MIC (H. influenzae 33929; [16]) [µg/mL]
CC[C@H]1OC(=O)[C@H](C)C(=O)[C@H](C)[C@@H](O[C@@H]2O[C@H](C)C[C@H](N(C)C)[C@H]2O)[C@@]2(C)C[C@@H](C)/C(=N\C(C)=O)[C@H](C)[C@@H](OC/C(=N\OCc3nccc4ccccc34)CO2)[C@]1(C)O [Compound A1],0.5,0.13,8,> 64,0.5,0.25,0.25,8,–,–,–,–,–,–,–,–
CC[C@H]1OC(=O)[C@H](C)C(=O)[C@H](C)[C@@H](O[C@@H]2O[C@H](C)C[C@H](N(C)C)[C@H]2O)[C@@]2(C)C[C@@H](C)/C(=N\C(C)=O)[C@H](C)[C@@H](OC/C(=N\OCc3ccc4nccnc4c3)CO2)[C@]1(C)O [Compound A2],1,0.25,16,> 64,0.5,0.25,0.5,16,–,–,–,–,–,–,–,–
CC[C@H]1OC(=O)[C@H](C)[C@@H](O)[C@H](C)[C@@H](O[C@@H]2O[C@H](C)C[C@H](N(C)C)[C@H]2O)[C@@]2(C)C[C@@H](C)C(=N)[C@H](C)[C@@H](OC/C(=N\OCc3ccccc3)CO2)[C@]1(C)O [Compound A5],64,–,> 64,> 64,2,–,–,> 64,–,–,–,–,–,–,–,–
CC[C@H]1OC(=O)[C@H](C)C(=O)[C@H](C)[C@@H](O[C@@H]2O[C@H](C)C[C@H](N(C)C)[C@H]2O)[C@@]2(C)C[C@@H](C)C(=O)[C@H](C)[C@@H](OC/C(=N\OCc3ccc4nc(N)sc4c3)CO2)[C@]1(C)O [Compound B1],–,–,–,–,–,–,–,–,0.25,≤ 0.06,4,> 64,≤ 0.06,1,≤ 0.06,2
CC[C@H]1OC(=O)[C@H](C)[C@@H](OC2C[C@@](C)(OC)[C@@H](OC(C)=O)[C@H](C)O2)[C@H](C)[C@@H](O[C@@H]2O[C@H](C)C[C@H](N(C)C)[C@H]2O)[C@@]2(C)C[C@@H](C)C(=O)[C@H](C)[C@@H](OCC(=Cc3cnc4ccccc4c3)CO2)[C@]1(C)O (stereo partly shown) [Compound A4],64,–,64,–,8,–,–,> 64,–,–,–,–,–,–,–,–
CC[C@H]1OC(=O)[C@H](C)C(=O)[C@H](C)[C@@H](O[C@@H]2O[C@H](C)C[C@H](N(C)C)[C@H]2O)[C@@]2(C)C[C@@H](C)/C(=N\C(C)=O)[C@H](C)[C@@H](OC/C(=N\OCc3cn4ccncc4n3)CO2)[C@]1(C)O [Compound A3],16,0.25,32,> 64,2,0.13,0.25,8,–,–,–,–,–,–,–,–
CC[C@H]1OC(=O)[C@H](C)C(=O)[C@H](C)[C@@H](O[C@@H]2O[C@H](C)C[C@H](N(C)C)[C@H]2O)[C@@]2(C)C[C@@H](C)C(=O)[C@H](C)[C@@H](OC/C(=N\OCc3ccc4oc(N)nc4c3)CO2)[C@]1(C)O [Compound B3],–,–,–,–,–,–,–,–,0.5,≤ 0.06,4,32,0.125,0.25,≤ 0.06,2
CC[C@H]1OC(=O)[C@@](C)(F)C(=O)[C@H](C)[C@@H](O[C@@H]2O[C@H](C)C[C@H](N(C)C)[C@H]2O)[C@@]2(C)C[C@@H](C)/C(=N\C(C)=O)[C@H](C)[C@@H](OC/C(=N\OCc3ccc4onc(N)c4c3)CO2)[C@]1(C)O [Compound B2],–,–,–,–,–,–,–,–,0.5,≤ 0.06,2,> 64,0.125,0.5,0.125,2
CC[C@H]1OC(=O)[C@H](C)C(=O)[C@H](C)[C@@H](O[C@@H]2O[C@H](C)C[C@H](N(C)C)[C@H]2O)[C@@]2(C)C[C@@H](C)/C(=N\C(C)=O)[C@H](C)[C@@H](OC/C(=N\OCc3ccc4oc(N)nc4c3)CO2)[C@]1(C)O [Compound B4],–,–,–,–,–,–,–,–,0.5,0.125,1,32,0.125,0.125,0.125,4
CC[C@H]1OC(=O)[C@H](C)[C@@H](OC(=O)Cc2cccnc2)[C@H](C)[C@@H](O[C@@H]2O[C@H](C)C[C@H](N(C)C)[C@H]2O)[C@@]2(C)C[C@@H](C)/C(=N\C(C)=O)[C@H](C)[C@@H](OC/C(=C\C=C\c3ccccc3)CO2)[C@]1(C)O [Compound A6],2,1,8,16,1,8,1,> 64,–,–,–,–,–,–,–,–

# Reference: patent US20060252710A1, “6-11 Bridged oxime erythromycin derivatives” (priority 2005, published 2006)
